EC50, CC50 and bioavailability data for 27 compounds are collected here from US11420959B2, “DACOS type NNRTIS amino acid ester derivative, preparation method thereof, pharmaceutical composition, and application thereof” (YUNNAN UNIVERSITY, priority 2018, dated 2022).

Where two headings read alike, the source gives them in different places. Some results are limits rather than exact numbers.

The subject of series [1] is HIV-1IIIB. The series is described as follows: Syncytium inhibition experiment, C8166 cells infected with HIV-1IIIB. The settings on record: Human immunodeficiency virus 1, 72 h, syncytium count, three days. It is filed as cell-based. The method, then:
The specific method was described below.
Syncytium inhibition experiment: 100 μL of C8166 cell suspension (4×10^5/mL) was inoculated into each well of a 96-well cell culture plate containing 5-fold serial dilutions of the compounds, followed by addition of HIV-1IIIB diluted supernatant (MOI=0.04). Three replicate wells were set for each serial concentration. […] The cells were incubated at 37° C. in a 5% CO2 incubator for three days. The number of the syncytia was counted in five non-overlapping fields of view by using an inverted microscope (100×). […] Calculation formula: cytopathic inhibition rate (%)=(1−number of syncytia in experimental wells/number of syncytia in control well)×100%.

The nature of series [2]: Cytotoxicity experiment (MTT method) on C8166 cells. Type of series: cell-based. The note with it: human. The method, then: Cytotoxicity experiment: The toxicity of the compounds on C8166 cells was determined by MTT method. In a 96-well cell culture plate, the compounds were subjected to 5-fold serial dilution and 100 μL of C8166 cell suspension (4×10^5/mL) was added into each well. Three replicate wells were set for each concentration. At the same time, a cell control group without drugs and drug control groups with Zidovudine (AZT) or Nevirapine (NVP) were set. The cells were incubated at 37° C. in a 5% CO2 incubator for three days, followed by the addition of MTT solution into each well, and then the cells were incubated at 37° C. for 4 hours. 15% SDS-50% DMF was added to each well and the cells were incubated at 37° C. in a 5% CO2 incubator overnight. After mixing evenly, the OD values were measured by BIO-TEK ELx800 ELISA instrument (determination wavelength: 570 nm; reference wavelength: 630 nm).
A general note: Formazan colour is commonly taken as a measure of viable cells.

For series [3] the following is noted: due to strong hydrophobicity; cited from earlier work.

The term EC50 denotes the midpoint of the concentration-response curve. The term CC50 denotes the concentration at which the toxic effect on the cells reaches its halfway point. `CCc1c(CC2CCCCC2)nc(SCC(=O)c2ccc(OC(=O)[C@@H](C)N)cc2)[nH]c1=O` [Compound I-6] gave a concentration for a half-maximal effect (EC50) in series [1] of 0.004 µM. In series [2], this compound returned a CC50 at 3 days of 96 µM.

Regarding `Cc1c(CC2CCCCC2)nc(SCC(=O)c2ccc(OC(=O)CN)cc2)[nH]c1=O` [Compound I-23], in series [1], the EC50 is 0.008 µM. In addition, the CC50 at 3 days in series [2] is > 200 µM.

The compound `CSCCC(N)C(=O)Oc1ccc(C(=O)CSc2nc(CC3CCCCC3)c(C)c(=O)[nH]2)cc1` (stereo not shown) [Compound I-24] returned an EC50 in series [1] of 0.012 µM. For the same compound, the 50% cytotoxic concentration (CC50) at 3 days in series [2] turned out to be 199 µM.

In series [1], `CC(C)c1c(CC2CCCCC2)nc(SCC(=O)c2ccc(OC(=O)C(N)Cc3c[nH]c4ccccc34)cc2)[nH]c1=O` (stereo not shown) [Compound I-16] had an EC50 of 0.004 µM. This compound also displayed a CC50 at 3 days in series [2] of 118 µM.

In series [1], `CCc1c(CC2CCCCC2)nc(SCC(=O)c2ccc(OC(=O)C(N)Cc3cnc[nH]3)cc2)[nH]c1=O` (stereo not shown) [Compound I-10] gave an EC50 of 0.012 µM. Besides, the CC50 at 3 days in series [2] was 199 µM.

For the compound `Cc1cn([C@H]2C[C@H](N=[N+]=[N-])[C@@H](CO)O2)c(=O)[nH]c1=O` [AZT, Zidovudine, reference compound], in series [2], the CC50 at 3 days is > 749 µM.

`CCc1c(CC2CCCCC2)nc(SCC(=O)c2ccc(OC(=O)C(N)Cc3c[nH]c4ccccc34)cc2)[nH]c1=O` (stereo not shown) [Compound I-5] displayed an EC50 in series [1] of 0.004 µM. The compound further came in with a CC50 at 3 days in series [2] of 95.2 µM.

`CCc1c(CC2CCCCC2)nc(SCC(=O)c2ccc(OC(=O)C(N)CC(N)=O)cc2)[nH]c1=O` (stereo not shown) [Compound I-12] returned an EC50 in series [1] of 0.004 µM. This compound returned a CC50 at 3 days in series [2] of 120 µM.

`CC[C@@H](C)[C@@H](N)C(=O)Oc1ccc(C(=O)CSc2nc(CC3CCCCC3)c(C(C)C)c(=O)[nH]2)cc1` [Compound I-14]: the EC50 in series [1] amounted to 0.004 µM. The CC50 at 3 days in series [2] came to 186 µM.

On to `CCc1c(CC2CCCCC2)nc(SCC(=O)c2ccc(OC(=O)C(N)CCCCN)cc2)[nH]c1=O` (stereo not shown) [Compound I-9], for which the response in series [1] was half-maximal at 0.006 µM (EC50). In series [2], this compound returned a CC50 at 3 days of 101 µM.

On to `CCc1c(CC2CCCCC2)nc(SCC(=O)c2ccccc2)[nH]c1=O` [DB02], for which, in series [3], the bioavailability entry was “low”.

`CCc1c(CC2CCCCC2)nc(SCC(=O)c2ccc(OC(=O)C(N)Cc3ccccc3)cc2)[nH]c1=O` (stereo not shown) [Compound I-7]: it took 0.009 µM to reach a half-maximal effect in series [1] (EC50). For the same compound, half-maximal cytotoxicity in series [2] (CC50 at 3 days) was put at 90.1 µM.

For `CSCCC(N)C(=O)Oc1ccc(C(=O)CSc2nc(CC3CCCCC3)c(C(C)C)c(=O)[nH]2)cc1` (stereo not shown) [Compound I-20], the EC50 in series [1] was 0.003 µM. The compound also gave a CC50 at 3 days in series [2] of 153 µM.

On to `CC(C)CC(N)C(=O)Oc1ccc(C(=O)CSc2nc(CC3CCCCC3)c(C(C)C)c(=O)[nH]2)cc1` (stereo not shown) [Compound I-18], for which the midpoint of the response in series [1], the EC50, lay at 0.004 µM. The compound also showed a CC50 at 3 days in series [2] of 97.4 µM.

Compound `Cc1c(CC2CCCCC2)nc(SCC(=O)c2ccc(OC(=O)C(N)Cc3ccccc3)cc2)[nH]c1=O` (stereo not shown) [Compound I-22] came in with an EC50 in series [1] of 0.01 µM. Further, it took 98.6 µM to reach half-maximal cytotoxicity in series [2] (CC50 at 3 days).

`Cc1ccnc2c1NC(=O)c1cccnc1N2C1CC1` [NVP, Nevirapine, reference compound]: the midpoint of the response in series [1], the EC50, lay at 0.013 µM. Further, the 50% cytotoxic concentration (CC50) at 3 days in series [2] (C8166 cells, MTT, three days, read-out: CC50) stood at 504 µM.

`CCc1c(CC2CCCCC2)nc(SCC(=O)c2ccc(OC(=O)C(N)CC(C)C)cc2)[nH]c1=O` (stereo not shown) [Compound I-2]: the EC50 in series [1] turned out to be 0.003 µM. In series [2], the CC50 at 3 days amounted to 112 µM.

In series [1], `CCc1c(CC2CCCCC2)nc(SCC(=O)c2ccc(OC(=O)C3CCCN3)cc2)[nH]c1=O` (stereo not shown) [Compound I-4] registered an EC50 of 0.012 µM. This compound also showed a CC50 at 3 days in series [2] of 95.4 µM.

With `CCc1c(CC2CCCCC2)nc(SCC(=O)c2ccc(OC(=O)[C@H](N)[C@H](C)CC)cc2)[nH]c1=O` [Compound I-3], the EC50 in series [1] is 0.005 µM. In series [2], this compound displayed a CC50 at 3 days of 134 µM.

`CC(C)c1c(CC2CCCCC2)nc(SCC(=O)c2ccc(OC(=O)C(N)Cc3ccccc3)cc2)[nH]c1=O` (stereo not shown) [Compound I-21]: in series [1], the EC50 was determined as 0.004 µM. This compound also had a CC50 at 3 days in series [2] of 95 µM.

`CC(C)c1c(CC2CCCCC2)nc(SCC(=O)c2ccc(OC(=O)C(N)C(C)C)cc2)[nH]c1=O` (stereo not shown) [Compound I-19] returned an EC50 in series [1] of 0.003 µM. In series [2], this compound had a CC50 at 3 days of 126 µM.

As for `CCc1c(CC2CCCCC2)nc(SCC(=O)c2ccc(OC(=O)C(N)C(C)C)cc2)[nH]c1=O` (stereo not shown) [Compound I-13], in series [1], a half-maximal response (EC50) required 0.003 µM. The compound further had a CC50 at 3 days in series [2] of 94.8 µM.

`CCc1c(CC2CCCCC2)nc(SCC(=O)c2ccc(OC(=O)C(N)CCSC)cc2)[nH]c1=O` (stereo not shown) [Compound I-8] had a concentration giving a half-maximal response (EC50) in series [1] of 0.004 µM. Further, half-maximal cytotoxicity in series [2] (CC50 at 3 days) was put at 116 µM.

As to `CCc1c(CC2CCCCC2)nc(SCC(=O)c2ccc(OC(=O)CN)cc2)[nH]c1=O` [Compound I-1], the EC50 in series [1] came to 0.004 µM. In series [2], this compound displayed a CC50 at 3 days of 138 µM.

In series [1], `CC(C)c1c(CC2CCCCC2)nc(SCC(=O)c2ccc(OC(=O)CN)cc2)[nH]c1=O` [Compound I-17] yielded an EC50 of 0.003 µM. This compound also displayed a CC50 at 3 days in series [2] of 191 µM.

In turn, `CC(C)c1c(CC2CCCCC2)nc(SCC(=O)c2ccc(OC(=O)C3CCCN3)cc2)[nH]c1=O` (stereo not shown) [Compound I-15] had an EC50 in series [1] of 0.012 µM. The midpoint of cytotoxicity in series [2], the CC50 at 3 days, lay at 98.3 µM.

`CCc1c(CC2CCCCC2)nc(SCC(=O)c2ccc(OC(=O)C(N)CCC(N)=O)cc2)[nH]c1=O` (stereo not shown) [Compound I-11] gave an EC50 in series [1] of 0.005 µM. The compound also had a CC50 at 3 days in series [2] of 118 µM.
